Test results taken from patent publication US12636299B2, “Terpenoid derivatives, pharmaceutical preparations containing these derivatives and their use in neuroprotection” (UNIVERZITA PALACKEHO V OLOMOUCI, priority 2020, dated 2026).

Legend:
[1] = tested on: SH-SY5Y human neuroblastoma cell line; assay: Cytotoxicity, Calcein AM viability assay on neuron-like SH-SY5Y cells; type: cell-based; details: 24 h
Protocol: The SH-SY5Y human neuroblastoma cell line obtained from ECACC (The European Collection of Authenticated Cell Cultures) was cultivated in Dulbecco's modified Eagle's Medium and Ham's F12 Nutrient Mixture (DMEM:F-12, 1:1), supplemented with 10% fetal bovine serum (FBS) and 1% penicillin and streptomycin at 37° C. in a humidified atmosphere 5% CO2, 95% humidity in passage limit up to ECACC+20. The assay was performed in 96-well microplate with 7000 SH-SY5Y cells per well. After 48 h, old DMEM/F12 media was removed by fresh media containing tested compounds at 0.1, 1 and 10 μM concentrations for 24 h. Glial cell line A-172 purchased from ATCC and grown in same conditions as SH-SY5Y cell line. A-172 cells were seeded in density 2000 cells per well and growing medium was replaced by treatment medium containing tested compounds in 0.1, 1 and 10 μM concentration; or in higher concentrations for R-LA or NAC positive controls for 48 hours. All tested compounds dissolved in DMSO were added into the medium. The maximum concentration of DMSO in media was kept below 0.1% (v/v). The cell viability was measured by Calcein AM (1 mg/ml ThermoFisher) viability assay. Solution of Calcein AM in PBS (0.75 μM) was pipetted to cells and incubated for 50 min. After that the fluorescence was measured at 488/517 nm (excitation/emission) using microplate reader Infinite M200 (TECAN). Calcein AM assay is based on the dye-intracellular-esterase cleavage of non-fluorescent dye (Calcein AM) by living cells to fluorescent dye (Calcein), while dying cells lose such ability. The values in Table 2 show the % of viability compared to control for all tested compounds. The results from DMSO control (medium with DMSO, <0.1% (v/v)) was postulated as 100% viability (see the first line of Table 2).

[2] = tested on: glial A-172 cells; assay: Cytotoxicity, Calcein AM viability assay on glial A-172 cells; type: cell-based, human; details: NAC at 1000 μM
Protocol: The assay was performed in 96-well microplate with 7000 SH-SY5Y cells per well. After 48 h, old DMEM/F12 media was removed by fresh media containing tested compounds at 0.1, 1 and 10 μM concentrations for 24 h. Glial cell line A-172 purchased from ATCC and grown in same conditions as SH-SY5Y cell line. […] All tested compounds dissolved in DMSO were added into the medium. The maximum concentration of DMSO in media was kept below 0.1% (v/v). The cell viability was measured by Calcein AM (1 mg/ml ThermoFisher) viability assay. Solution of Calcein AM in PBS (0.75 μM) was pipetted to cells and incubated for 50 min. After that the fluorescence was measured at 488/517 nm (excitation/emission) using microplate reader Infinite M200 (TECAN). Calcein AM assay is based on the dye-intracellular-esterase cleavage of non-fluorescent dye (Calcein AM) by living cells to fluorescent dye (Calcein), while dying cells lose such ability.

[3] = tested on: human neuroblastoma cell line SH-SY5Y; assay: Viability of differentiated SH-SY5Y in salsolinol-induced model of PD (Calcein AM); type: cell-based; details: for Neuroprotective effect (% of control): difference between 800 μM SAL and co-treatment group means, 24 hours; for effect on SH-SY5Y viability in salsolinol model, in words: 800 μM salsolinol, comparison with NAC
Protocol: Similarly, as in previous “Safety test”, the SH-SY5Y cells were seeded at density 7000 cells/well. After 48 h differentiation, old 1% DMEM/F12 media was replaced by fresh media containing 800 μM salsolinol (SAL) and tested compounds in 0.1, 1 and 10 μM concentrations. N-acetylcystein were chosen as positive control. After 24 hours, the cell viability was measured by Calcein AM viability assay. The values in Table 2 show % of viability of all tested compounds relative to control. The control (medium with DMSO, <0.1% (v/v)) was postulated as 100% viability (see the first line of the table), while the SAL exposure lead to decrease of viability to 65.4±0.97%.

[4] = tested on: caspase-3,7 activity; assay: Caspase-3,7 activity in salsolinol-induced model of PD on SH-SY5Y (Ac-DEVD-AMC); type: cell-based, human; details: for Caspase-3,7 activity (% of 800 μM SAL control): percentages of control (800 μM SAL = 100), 24 hour co-treatment; for reduction of caspase-3,7 activity, in words: 800 μM SAL, compounds 3 and 4 at 10 μM compared with NAC; for efficacy relative to positive controls (by used concentration): caspase-3,7 activity, salsolinol model
Protocol: Similarly, as shown in previous assay, cells grew on 96 multiwell plates at density 20000 cells per well underwent differentiation and treatment procedure for salsolinol model. After 24 hour co-treatment with salsolinol, caspase-3,7 (casp-3,7) activity as marker of apoptosis was quantified by its substrate Ac-DEVD-AMC according to Carrasco et al. (2003, BioTechniques, 34, 1064-1067). In this model, overall casp-3,7 activity induced by 800 μM SAL was consider as 100% and thus the reduction in casp-3,7 was observed after treatment with the protective terpenoid derivatives. As shown in Table 4 and FIG. 2, 800 μM SAL induced 2.9-fold increase.

[5] = tested on: human neuron-like SH-SY5Y cells; assay: 3NPA-induced model of Huntington's disease, neuron-like SH-SY5Y cells; type: cell-based; details: difference to 20 mM 3NPA, 48 h
Protocol: (§1) Before application of toxin 3-nitropropionic acid (3NPA) for mimicking Huntington's disease, the 3NPA was dissolved in water and neutralized by sodium hydroxide. SH-SY5Y cells were seeded in the same density and differentiated by the procedure shown above. Astrocyte cells A-172 were also seeded as described in previous section. Both cell lines were co-treated by 3NPA (20 mM for SH-SY5Y cells, […]) and tested compounds at 0.1, 1 and 10 μM concentration for 48 h.

[6] = tested on: astrocyte A-172 cells; assay: 3NPA-induced model of Huntington's disease, astrocyte A-172 cells; type: cell-based, human; details: for Astro-protective effect (% of control): difference to 10 mM 3NPA, 48 h
Protocol: as §1

[7] = tested on: superoxide radical formation; assay: Oxidative stress (superoxide radical formation, DHE) in 3NPA-induced model on SH-SY5Y; type: cell-based, human; details: for Superoxide radical formation (oxidative stress) %: 20 mM 3NPA = 100%, 24 hours
Protocol: Similarly, to previous assay, cells grown on 96-multiwell plates at density 20000 cells per well underwent differentiation and treatment procedure with 3-nitropropionic acid (3NPA) in this model. After 24 hours of co-treatment with 20 mM 3NPA, superoxide radical's formation as a marker of oxidative stress was quantified by dihydroethidium according to Kim et al. (2017, J. Med. Food, 20, 140-151). Briefly, neuron-like SH-SY5Y cells were centrifuged at 500 g for 5 min and 30 s, then media were replaced by 10 μM DHE PBS solution and kept at room temperature for 30 min. After that, DHE was read at 500 nm/580 nm (excitation/emission) by Infinite M200 Pro (Tecan) microplate reader. DHE is cell permeable dye which is selective for superoxide radical detection. Overall oxidative stress achieved by 20 mM 3NPA was consider as 100% and thus the reduction in superoxide radical's formation (OS reducing effect) was determined. As shown in Table 6 and FIG. 2, 20 mM 3NPA induced 2.7-fold increase in superoxide radical's formation.

[8] = tested on: glial A-172 cells; assay: Cytotoxicity, Calcein AM viability assay on glial A-172 cells; type: cell-based, human; details: 48 hours

Compound | viability, percentage of DMSO control ([1]; 0.1 μM) | viability, percentage of DMSO control ([1]; 1 μM) | viability, percentage of DMSO control ([1]; 10 μM) | effect on viability of astrocytes, in words [2] | Neuroprotective effect (% of control) ([3]; 0.1 μM) | Neuroprotective effect (% of control) ([3]; 1 μM) | Neuroprotective effect (% of control) ([3]; 10 μM) | effect on SH-SY5Y viability in salsolinol model, in words [3] | Caspase-3,7 activity (% of 800 μM SAL control) ([4]; 1 μM) | Caspase-3,7 activity (% of 800 μM SAL control) ([4]; 10 μM) | reduction of caspase-3,7 activity, in words [4] | efficacy relative to positive controls (by used concentration) [4] | Neuro-protective effect (% of control) ([5]; 0.1 μM) | Neuro-protective effect (% of control) ([5]; 1 μM) | Neuro-protective effect (% of control) ([5]; 10 μM) | Astro-protective effect (% of control) ([6]; A-172, 0.1 μM) | Astro-protective effect (% of control) ([6]; A-172, 1 μM) | Astro-protective effect (% of control) ([6]; A-172, 10 μM) | Superoxide radical formation (oxidative stress) % ([7]; 0.1 μM) | Superoxide radical formation (oxidative stress) % ([7]; 1 μM) | other results
C=C(C(=O)OCc1cccnc1)C1CCC2(COC(C)=O)CCC3(C)C(CCC4C5(C)CCC(OC(C)=O)C(C)(C)C5CCC43C)C12 (stereo not drawn) [Compound 4, Pyridin-3-yl-methyl (3β)-3,28-bis(acetyloxy)lup-20(30)-en-29-oate] | 99.9% | 146.1% | 142.5% | slight decrease in percentage of living cells | N/A (N/A = no protection) | 33.70 % of control | 33.99 % of control | better effect than 1000 μM NAC | 67.2% | 46.0% | better | 10 fold | N/A (N/A = no protection) | 32.36 % of control | 28.98 % of control | 7.38 % of control | 3.25 % of control | N/A (N/A = no protection) | 84.7% | 78.5% | Superoxide radical formation (oxidative stress) % ([7]; 10 μM): 65.8%; viability, percentage of DMSO control ([8]; 0.1 μM): 104.2%; viability, percentage of DMSO control ([8]; 1 μM): 97.9%; viability, percentage of DMSO control ([8]; 10 μM): 83.6%
C=C(C(=O)OCc1ccncc1)C1CCC2(COC(C)=O)CCC3(C)C(CCC4C5(C)CCC(OC(C)=O)C(C)(C)C5CCC43C)C12 (stereo not drawn) [Compound 3, Pyridin-4-yl-methyl 3β,28-bis(acetyloxy)lup-20(30)-en-29-oate] | 115.8% | 145.0% | 137.4% | slight decrease in percentage of living cells | N/A (N/A = no protection) | 33.10 % of control | 21.50 % of control | better effect than 1000 μM NAC | 73.7% | 55.6% | comparable | 10 fold | N/A (N/A = no protection) | 39.96 % of control | 24.13 % of control | N/A (N/A = no protection) | 11.98 % of control | N/A (N/A = no protection) | 88.4% | 79.0% | protective effect on astrocytes in 3NPA model, in words ([6]; A-172 cells, comparison with R-LA): positive effect comparable to R-LA control; OS reducing effect, in words ([7]; 10 μM, comparison with 100 μM NAC): even stronger activity toward oxidative stress; Superoxide radical formation (oxidative stress) % ([7]; 10 μM): 81.9%; viability, percentage of DMSO control ([8]; 0.1 μM): 95.5%; viability, percentage of DMSO control ([8]; 1 μM): 98.2%; viability, percentage of DMSO control ([8]; 10 μM): 71.7%
